≈ marks a conversion by molar mass, not a printed value. Like-named read-outs stand apart in the source and are kept apart here.
What was measured:
[1] = in vivo, cited from earlier work
[2] = humans; cited from earlier work
physchem = type: physicochemical
Method: There are different types of cyclodextrins available. For the purpose of this patent application, the cyclodextrin can be one or more the following—alpha cyclodextrin (alpha CD), beta cyclodextrin (beta CD), gamma cyclodextrin (gamma CD), hydroxypropyl beta cyclodextrin (HPBCD), sulfobutyl ether beta cyclodextrin (SBEBCD), and randomly methylated beta cyclodextrin. […] The concentration of cyclodextrin in the samples ranged from 0 mg/mL to 12.5 mg/mL.

[3] = older adults, cited from earlier work
[4] = rat, in vivo, po; cited from earlier work

SMILES	apparent oral clearance ([1]; po)	elimination half-life [1]	mean Cmax (maximum blood concentration) [1]	median lethal dose [2]	increase of solubility in water (physchem)	saturation solubility in water (physchem)	solubility (physchem; water, thermodynamic from solid, saturation solubility in water)	Tmax ([3]; high dose (>2 mg))	Tmax ([3]; low dose (<0.5 mg))	LD50 [4]
CN(C)CCOC(C)(c1ccccc1)c1ccccn1 (stereo not shown) [Doxylamine succinate]	217 mL/min	10.1 h	99 ng/mL	50 to 500 mg/kg						
COc1ccc2[nH]cc(CCNC(C)=O)c2c1 [Melatonin]					~60%	1750 µg/mL	~1750 µg/mL (≈ 7.53 mM)	1.5 h	1.3 h	over 3200 mg/kg
